Like-named read-outs stand apart in the source and are kept apart here. Numbered stars: 1 amine (or outer) side, 2 acyl side, 3 side chain; on linkers, the order of the positions; unused ones are H or OH. Bridge positions count the residues as written; N and C are the ends. Side chains are listed from the residue outwards. Peptide text beside a SMILES is read from it. * marks the point of attachment. C20 diacid = O=C(O)CCCCCCCCCCCCCCCCCCC(=O)*; γGlu = O=C(O)[C@H](CCC(=O)[*:2])N[*:1]
Target: T1, hCTR (Homo sapiens, UniProt P30988)
T1 sequence (P30988 25-474): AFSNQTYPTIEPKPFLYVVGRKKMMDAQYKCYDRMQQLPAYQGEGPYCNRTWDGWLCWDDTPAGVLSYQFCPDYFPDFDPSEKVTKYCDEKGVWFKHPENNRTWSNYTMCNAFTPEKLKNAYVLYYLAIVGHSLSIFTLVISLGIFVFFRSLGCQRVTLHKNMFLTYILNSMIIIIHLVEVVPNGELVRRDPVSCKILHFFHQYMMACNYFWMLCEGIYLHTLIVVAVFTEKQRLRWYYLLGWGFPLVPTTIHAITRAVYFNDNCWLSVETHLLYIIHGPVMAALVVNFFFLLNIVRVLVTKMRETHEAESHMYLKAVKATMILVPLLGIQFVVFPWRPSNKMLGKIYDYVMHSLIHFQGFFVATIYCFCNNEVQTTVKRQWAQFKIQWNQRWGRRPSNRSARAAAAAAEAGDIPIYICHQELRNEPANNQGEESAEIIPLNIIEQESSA
Assay: cAMP-responsive element luciferase reporter assay, human CTR
Format: cell-based
Conditions: luciferase (human receptor assay)

[1] = Tables S12 and S14, read-out: hCTR pEC50 (converted)
[2] = BHK cells stably expressing hCTR and CRE-luciferase, 3 h, 37 °C, 10% FBS, read-out: hCTR EC50

SMILES | EC50 [1] | EC50 [2] | hCTR pEC50 (Tables S12 and S14)
CC[C@H](C)[C@H](NC(=O)[C@@H]1CCCN1C(=O)CNC(=O)[C@H](Cc1ccccc1)NC(=O)[C@H](CC(N)=O)NC(=O)[C@@H]1CCCN1C(=O)[C@H](CO)NC(=O)[C@H](CO)NC(=O)[C@H](Cc1c[nH]cn1)NC(=O)[C@H](CCCNC(=N)N)NC(=O)[C@H](CC(C)C)NC(=O)[C@H](Cc1ccccc1)NC(=O)[C@H](CC(=O)O)NC(=O)[C@H](C)NC(=O)[C@H](CC(C)C)NC(=O)[C@H](CCCNC(=N)N)NC(=O)[C@H](CCC(N)=O)NC(=O)[C@@H](NC(=O)[C@H](C)NC(=O)[C@@H]1CSSC[C@H](NC(=O)[C@@H](N)CCCCNC(=O)CC[C@H](NC(=O)CC[C@H](NC(=O)CCCCCCCCCCCCCCCCCCC(=O)O)C(=O)O)C(=O)O)C(=O)N[C@@H](CC(N)=O)C(=O)N[C@@H]([C@@H](C)O)C(=O)N[C@@H](C)C(=O)N[C@@H]([C@@H](C)O)C(=O)N1)[C@@H](C)O)C(=O)N[C@@H](CC(C)C)C(=O)N[C@@H](CO)C(=O)N[C@@H](CO)C(=O)N[C@H](C(=O)N[C@@H](CC(N)=O)C(=O)N[C@H](C(=O)NCC(=O)N[C@@H](CO)C(=O)N[C@@H](CC(=O)O)C(=O)N[C@H](C(=O)N[C@@H](Cc1ccc(O)cc1)C(N)=O)[C@@H](C)O)C(C)C)[C@@H](C)O [Peptide 3] (H-K([γGlu-γGlu-C20 diacid])CNTATCATQRLADFLRHSSPNFGPILSSTNVGSDTY-NH2; disulfide 2-7) | 3.02 nM | 3 nM | –
CC[C@H](C)[C@H](NC(=O)[C@H](C)NC(=O)CNC(=O)[C@H](Cc1ccccc1)NC(=O)[C@H](CC(N)=O)NC(=O)[C@@H]1CCCN1C(=O)[C@H](CO)NC(=O)[C@H](CO)NC(=O)[C@H](Cc1c[nH]cn1)NC(=O)[C@H](CCCNC(=N)N)NC(=O)[C@H](CC(C)C)NC(=O)[C@H](Cc1ccccc1)NC(=O)[C@H](CCC(=O)O)NC(=O)[C@H](C)NC(=O)[C@H](CC(C)C)NC(=O)[C@H](CCCNC(=N)N)NC(=O)[C@H](CCC(N)=O)NC(=O)[C@@H](NC(=O)[C@H](C)NC(=O)[C@@H]1CSSC[C@H](NC(=O)[C@H](CCCCN)NC(=O)CC[C@H](NC(=O)CCCCCCCCCCCCCCCCCCC(=O)O)C(=O)O)C(=O)N[C@@H](CC(N)=O)C(=O)N[C@@H]([C@@H](C)O)C(=O)N[C@@H](C)C(=O)N[C@@H]([C@@H](C)O)C(=O)N1)[C@@H](C)O)C(=O)N1CCC[C@H]1C(=O)N[C@@H](CO)C(=O)N[C@@H](CO)C(=O)N[C@H](C(=O)N[C@@H](CC(N)=O)C(=O)N[C@H](C(=O)NCC(=O)N1CCC[C@H]1C(=O)N[C@@H](CC(N)=O)C(=O)N[C@H](C(=O)N[C@@H](Cc1ccc(O)cc1)C(N)=O)[C@@H](C)O)C(C)C)[C@@H](C)O [Peptide 12] ({C20 diacid-γGlu}-KCNTATCATQRLAEFLRHSSPNFGAIPSSTNVGPNTY-NH2; disulfide 2-7) | 0.316 nM | 0.314 nM | –
CC[C@H](C)[C@H](NC(=O)[C@H](C)NC(=O)CNC(=O)[C@H](Cc1ccccc1)NC(=O)[C@H](CC(N)=O)NC(=O)[C@@H]1CCCN1C(=O)[C@H](CO)NC(=O)[C@H](CO)NC(=O)[C@H](Cc1c[nH]cn1)NC(=O)[C@H](CCCNC(=N)N)NC(=O)[C@H](CC(C)C)NC(=O)[C@H](Cc1ccccc1)NC(=O)[C@H](CC(N)=O)NC(=O)[C@H](C)NC(=O)[C@H](CC(C)C)NC(=O)[C@H](CCCNC(=N)N)NC(=O)[C@H](CCC(N)=O)NC(=O)[C@@H](NC(=O)[C@H](C)NC(=O)[C@@H]1CSSC[C@H](NC(=O)[C@H](CCCCN)NC(=O)CC[C@H](NC(=O)CCCCCCCCCCCCCCCCCCC(=O)O)C(=O)O)C(=O)N[C@@H](CC(N)=O)C(=O)N[C@@H]([C@@H](C)O)C(=O)N[C@@H](C)C(=O)N[C@@H]([C@@H](C)O)C(=O)N1)[C@@H](C)O)C(=O)N1CCC[C@H]1C(=O)N[C@@H](CO)C(=O)N[C@@H](CO)C(=O)N[C@H](C(=O)N[C@@H](CC(N)=O)C(=O)N[C@H](C(=O)NCC(=O)N[C@@H](CCCNC(=N)N)C(=O)N[C@@H](CC(N)=O)C(=O)N[C@H](C(=O)N[C@@H](Cc1ccc(O)cc1)C(N)=O)[C@@H](C)O)C(C)C)[C@@H](C)O [Peptide 16] | – | – | 8.60
CC[C@H](C)[C@H](NC(=O)[C@H](C)NC(=O)CNC(=O)[C@H](Cc1ccccc1)NC(=O)[C@H](CC(N)=O)NC(=O)[C@@H]1CCCN1C(=O)[C@H](CO)NC(=O)[C@H](CO)NC(=O)[C@H](Cc1c[nH]cn1)NC(=O)[C@H](CCCNC(=N)N)NC(=O)[C@H](CC(C)C)NC(=O)[C@H](Cc1ccccc1)NC(=O)[C@H](CC(N)=O)NC(=O)[C@H](C)NC(=O)[C@H](CC(C)C)NC(=O)[C@H](CCCNC(=N)N)NC(=O)[C@H](CCC(N)=O)NC(=O)[C@@H](NC(=O)[C@H](C)NC(=O)[C@@H]1CSSC[C@H](NC(=O)[C@H](CCCNC(=N)N)NC(=O)CNC(=O)CC[C@H](NC(=O)CCCCCCCCCCCCCCCCCCC(=O)O)C(=O)O)C(=O)N[C@@H](CC(N)=O)C(=O)N[C@@H]([C@@H](C)O)C(=O)N[C@@H](C)C(=O)N[C@@H]([C@@H](C)O)C(=O)N1)[C@@H](C)O)C(=O)N1CCC[C@H]1C(=O)N[C@@H](CO)C(=O)N[C@@H](CO)C(=O)N[C@H](C(=O)N[C@@H](CC(N)=O)C(=O)N[C@H](C(=O)NCC(=O)N[C@@H](CO)C(=O)N[C@@H](Cc1c[nH]cn1)C(=O)N[C@H](C(=O)N[C@@H](Cc1ccc(O)cc1)C(N)=O)[C@@H](C)O)C(C)C)[C@@H](C)O [Peptide 19] ({C20 diacid-γGlu}-GRCNTATCATQRLANFLRHSSPNFGAIPSSTNVGSHTY-NH2; disulfide 3-8) | – | – | 8.88
CC[C@H](C)[C@H](NC(=O)[C@H](C)NC(=O)CNC(=O)[C@H](Cc1ccccc1)NC(=O)[C@H](CC(N)=O)NC(=O)[C@@H]1CCCN1C(=O)[C@H](CO)NC(=O)[C@H](CO)NC(=O)[C@H](Cc1c[nH]cn1)NC(=O)[C@H](CCCNC(=N)N)NC(=O)[C@H](CC(C)C)NC(=O)[C@H](Cc1ccccc1)NC(=O)[C@H](CCC(=O)O)NC(=O)[C@H](C)NC(=O)[C@H](CC(C)C)NC(=O)[C@H](CCCNC(=N)N)NC(=O)[C@H](CCC(N)=O)NC(=O)[C@@H](NC(=O)[C@H](C)NC(=O)[C@@H]1CSSC[C@H](NC(=O)[C@@H](N)CCCCNC(=O)CC[C@H](NC(=O)CCCCCCCCCCCCCCCCCCC(=O)O)C(=O)O)C(=O)N[C@@H](CC(N)=O)C(=O)N[C@@H]([C@@H](C)O)C(=O)N[C@@H](C)C(=O)N[C@@H]([C@@H](C)O)C(=O)N1)[C@@H](C)O)C(=O)N1CCC[C@H]1C(=O)N[C@@H](CO)C(=O)N[C@@H](CO)C(=O)N[C@H](C(=O)N[C@@H](CC(N)=O)C(=O)N[C@H](C(=O)NCC(=O)N[C@@H](CO)C(=O)N[C@@H](CCCNC(=N)N)C(=O)N[C@H](C(=O)N[C@@H](Cc1ccc(O)cc1)C(N)=O)[C@@H](C)O)C(C)C)[C@@H](C)O [Peptide 20] (H-K([γGlu-C20 diacid])CNTATCATQRLAEFLRHSSPNFGAIPSSTNVGSRTY-NH2; disulfide 2-7) | – | 5.2 nM | 8.28

The remaining lines, values ahead:

EC50 [1] | EC50 [2] | hCTR pEC50 (Tables S12 and S14) | SMILES
2.57 nM | 2.58 nM | – | CC(C)C[C@H](NC(=O)[C@H](CCCNC(=N)N)NC(=O)[C@H](CCC(N)=O)NC(=O)[C@@H](NC(=O)[C@H](C)NC(=O)[C@@H]1CSSC[C@H](NC(=O)[C@@H](N)CCCCNC(=O)CC[C@H](NC(=O)CC[C@H](NC(=O)CCCCCCCCCCCCCCCCCCC(=O)O)C(=O)O)C(=O)O)C(=O)N[C@@H](CC(N)=O)C(=O)N[C@@H]([C@@H](C)O)C(=O)N[C@@H](C)C(=O)N[C@@H]([C@@H](C)O)C(=O)N1)[C@@H](C)O)C(=O)N[C@@H](C)C(=O)N[C@@H](CC(=O)O)C(=O)N[C@@H](Cc1ccccc1)C(=O)N[C@@H](CC(C)C)C(=O)N[C@@H](CCCNC(=N)N)C(=O)N[C@@H](Cc1c[nH]cn1)C(=O)N[C@@H](CO)C(=O)N[C@@H](CO)C(=O)N1CCC[C@H]1C(=O)N[C@@H](CC(N)=O)C(=O)N[C@@H](Cc1ccccc1)C(=O)NCC(=O)N[C@@H](C)C(=O)N1CCC[C@H]1C(=O)N[C@@H](CC(C)C)C(=O)N[C@@H](CO)C(=O)N[C@@H](CO)C(=O)N[C@H](C(=O)N[C@@H](CC(N)=O)C(=O)N[C@H](C(=O)NCC(=O)N[C@@H](CO)C(=O)N[C@@H](CC(=O)O)C(=O)N[C@H](C(=O)N[C@@H](Cc1ccc(O)cc1)C(N)=O)[C@@H](C)O)C(C)C)[C@@H](C)O [Peptide 5] (H-K([γGlu-γGlu-C20 diacid])CNTATCATQRLADFLRHSSPNFGAPLSSTNVGSDTY-NH2; disulfide 2-7)
– | – | 8.86 | CC(C)C[C@H](NC(=O)[C@H](CCCNC(=N)N)NC(=O)[C@H](CCC(N)=O)NC(=O)[C@@H](NC(=O)[C@H](C)NC(=O)[C@@H]1CSSC[C@H](NC(=O)[C@@H](N)CCCCNC(=O)CC[C@H](NC(=O)CC[C@H](NC(=O)CCCCCCCCCCCCCCCCCCC(=O)O)C(=O)O)C(=O)O)C(=O)N[C@@H](CC(N)=O)C(=O)N[C@@H]([C@@H](C)O)C(=O)N[C@@H](C)C(=O)N[C@@H]([C@@H](C)O)C(=O)N1)[C@@H](C)O)C(=O)N[C@@H](C)C(=O)N[C@@H](CC(=O)O)C(=O)N[C@@H](Cc1ccccc1)C(=O)N[C@@H](CC(C)C)C(=O)N[C@@H](CCCNC(=N)N)C(=O)N[C@@H](Cc1c[nH]cn1)C(=O)N[C@@H](CO)C(=O)N[C@@H](CO)C(=O)N[C@@H](CC(N)=O)C(=O)N1CCC[C@H]1C(=O)N[C@@H](Cc1ccccc1)C(=O)NCC(=O)N[C@@H](C)C(=O)N1CCC[C@H]1C(=O)N[C@@H](CC(C)C)C(=O)N[C@@H](CO)C(=O)N[C@@H](CO)C(=O)N[C@H](C(=O)N[C@@H](CC(N)=O)C(=O)N[C@H](C(=O)NCC(=O)N[C@@H](CO)C(=O)N[C@@H](CC(=O)O)C(=O)N[C@H](C(=O)N[C@@H](Cc1ccc(O)cc1)C(N)=O)[C@@H](C)O)C(C)C)[C@@H](C)O [Peptide 7] (H-K([γGlu-γGlu-C20 diacid])CNTATCATQRLADFLRHSSNPFGAPLSSTNVGSDTY-NH2; disulfide 2-7)

Reference: article PMC11284788, “NN1213 – A Potent, Long-Acting, and Selective Analog of Human Amylin” (Journal of Medicinal Chemistry, 2024)
